For one assay, the target named is T1, MAO-A (Homo sapiens, UniProt P21397).
T1 sequence (P21397 1-527): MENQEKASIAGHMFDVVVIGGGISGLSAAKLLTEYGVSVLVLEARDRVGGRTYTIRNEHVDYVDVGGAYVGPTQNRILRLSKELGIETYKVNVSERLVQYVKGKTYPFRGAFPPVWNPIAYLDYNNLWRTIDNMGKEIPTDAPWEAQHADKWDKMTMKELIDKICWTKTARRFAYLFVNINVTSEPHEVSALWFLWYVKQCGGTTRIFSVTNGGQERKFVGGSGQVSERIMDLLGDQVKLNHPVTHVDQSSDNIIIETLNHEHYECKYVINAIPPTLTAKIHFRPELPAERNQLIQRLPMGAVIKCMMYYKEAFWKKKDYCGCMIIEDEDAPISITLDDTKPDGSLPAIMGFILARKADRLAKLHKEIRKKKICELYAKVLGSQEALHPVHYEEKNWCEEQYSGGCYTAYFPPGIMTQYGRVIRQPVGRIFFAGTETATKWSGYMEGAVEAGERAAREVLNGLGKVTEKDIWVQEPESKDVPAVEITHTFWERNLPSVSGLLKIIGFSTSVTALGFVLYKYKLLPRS
Put plainly: MAO-A inhibition, kynuramine method. Format: biochemical. The following applies: at the concentration of 10.0 μM; n.a. = no active, percent inhibition <5.0%; read-out: %Inhibition MAO-A.

Assay [1] in a line: Oxygen radical absorbance capacity assay with fluorescein (ORAC-FL). The following applies: Trolox as standard. The protocol:
Oxygen radical absorbance capacity assay which used fluorescein (ORAC-FL) was performed to measure the antioxidant activities of 2-(4-(benzyloxy)-5-(hydroxyl) phenyl) benzothiazole derivatives. […] It reflected that introduction of alkyl substituents on benzyloxy ring was more beneficial for the improvement of in vitro antioxidant activity. However, the position and number of substituents seem to have little influence on the antioxidative activities.
Test compounds solution (20 µL, 10 µM) and fluorescein solution (120 µL, 250 nM) were added to a black 96-wells plate in order. The mixture was incubated for 15 min at 37 °C. Then, AAPH solution (60 µL, 40 mM) was added through an automatic sampler. The fluorescence was recorded with excitation and emission wavelengths at 485 and 535 nm on the multifunctional enzyme marker (Thermo Scientific), and the area under the curve (AUC) was calculated automatically. Trolox was used as a reference, and the antioxidant activities of the compounds were expressed as Trolox equivalent. The test compound solution was replaced with PBS (20 µL) in blank well. The antioxidant activities of the test compounds were calculated by the formula: [(AUCsample − AUCblank)/(AUCtrolox − AUCblank)] × [(Trolox concentration/test sample concentration)].

Assay [2] addresses T2, MAO-B (Homo sapiens, UniProt P27338).
T2 sequence (P27338 1-520): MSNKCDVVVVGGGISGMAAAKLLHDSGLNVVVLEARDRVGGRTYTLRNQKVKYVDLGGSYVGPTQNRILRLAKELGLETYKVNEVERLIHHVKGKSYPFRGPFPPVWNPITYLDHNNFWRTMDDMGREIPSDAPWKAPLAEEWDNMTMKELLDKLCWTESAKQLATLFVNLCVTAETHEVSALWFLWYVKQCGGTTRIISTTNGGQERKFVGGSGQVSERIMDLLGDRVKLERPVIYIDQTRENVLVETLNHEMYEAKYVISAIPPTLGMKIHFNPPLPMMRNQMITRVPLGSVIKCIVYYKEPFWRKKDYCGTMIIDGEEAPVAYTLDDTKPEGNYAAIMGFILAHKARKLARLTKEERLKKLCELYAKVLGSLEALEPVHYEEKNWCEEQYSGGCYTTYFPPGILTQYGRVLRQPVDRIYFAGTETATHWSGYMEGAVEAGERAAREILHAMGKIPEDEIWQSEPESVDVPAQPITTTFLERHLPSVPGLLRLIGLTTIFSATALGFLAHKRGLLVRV
Put plainly: Kinetic study of MAO-B inhibition (Lineweaver-Burk plots). Format: biochemical. The protocol: Kinetic study[35]^,[36] was conducted to figure out the MAO-B inhibitory mechanism of 2-(4-(benzyloxy)-5-(hydroxyl) phenyl) benzothiazole derivatives, with 3h as the test compound. […] The graphical of the reciprocal Lineweaver-Burk plots was depicted in Figure 2(A).
The kinetic study of 3h was conducted by the method which is similar with the inhibition experiment of MAOs. Different concentrations of 3h (0.124, 0.062, and 0.031 µM) and kynuramine (15, 30, 60, and 90 µM) solutions were selected. The control experiment was performed without 3h. The method of data analysis has been described previously.

Assay [3] deals with T2, MAO-B. Briefly: Reversibility study of MAO-B inhibition by dialysis method. Format: biochemical.
Protocol: The mixture was incubated at 37 °C for 30 min and transferred to dialysis bag (MWCO: 10 000, flattening width: 24 mm, length: 8–10 cm). Then, this dialysis bag was placed in 200 ml PBS for 24 h, and the outer PBS was replaced with fresh at 3 and 7 h, respectively. As for the undialysis group, the mixture was placed at 4 °C for 24 h. After dialysis, the mixtures (40 µL) in the dialysis bag were taken out to measure the catalytic activity, and the test method was similar with the inhibition experiment of MAOs. […] The test compound solution was replaced with PBS buffer at the same volume in the blank group.
Assay [4] relates to NO release in LPS-activated BV-2 microglia cells. Put plainly: LPS-induced NO release in BV-2 cells (Griess method). The following applies: Mus musculus, LPS 1.0 µg/mL, read-out: inhibitory rate of LPS-induced NO release. Format: cell-based. The protocol:
Then, Griess method was performed to measure the inhibitory effect of 3h on LPS-induced NO release in BV-2 cells. […] It reflected that LPS could induce the activation of BV-2 cells and induce neuroinflammation.
(§1) ELISA and Griess reaction methods were performed to detect the inhibitory effect of 3h on the release of TNF-α and NO in LPS-stimulated BV-2 cells[46]^,[47]. BV-2 cells in the logarithmic phase were seeded into 96-well cell culture plate, and these cells were incubated at 37 °C for 24 h at the atmosphere of 5% CO2. After incubation, the culture solution was replaced by fresh one (90 µL without serum), and test compound solution (10 µL) was added. After addition, the plate was incubated for 30 min, then LPS (10 µL, 1.0 µg/ml in PBS) was added to each well, and the mixture would be incubated for another 24 h at 37 °C. After the final incubation, the supernatants were taken out to measure the level of TNF-α and NO according to the procedures depicted on the kits (kits were purchased from Nanjing Jiancheng Bioengineering Institute).

Assay [5] has as its system TNF-α production in LPS-activated BV-2 microglia cells. Briefly: LPS-induced TNF-α production in BV-2 cells (ELISA). Format: cell-based. Conditions: Mus musculus, LPS 1.0 µg/mL, read-out: inhibition rate of LPS-induced TNF-α production. The protocol: ELISA method was carried out to detect the inhibitory effects of 3h on LPS-induced TNF-α production. As shown in Figure 8(B), the level of TNF-α expression was dramatically raised when BV-2 cells were exposed to LPS (1.0 µg/mL).
as §1

These results are taken from paper PMC9897792, “Discovery of novel 2-(4-(benzyloxy)-5-(hydroxyl) phenyl) benzothiazole derivatives as multifunctional MAO-B inhibitors for the treatment of Parkinson’s disease” (Journal of Enzyme Inhibition and Medicinal Chemistry, 2023).

Several values for one entry are separate records, joined by “and”; a condition that tells them apart may be missing. Equal values may be shown once.

For the molecule `Oc1cc(OCc2ccc(F)cc2)ccc1-c1nc2ccccc2s1` [3h, 2-(Benzo[d]thiazol-2-yl)-5-((4-fluorobenzyl)oxy)phenol], the inhibition at 10 µM came to 39.7 ± 0.54% at MAO-A, 63.7% in assay [4] (10.0 µM) and 52.5% in assay [5] (10.0 µM). The ORAC in assay [1] is 2.27 Trolox equivalents and 2.27 ± 0.08 Trolox equivalents. Besides, the MAO-B inhibition pattern result at MAO-B [2] (Lineweaver-Burk plots) is listed as “competitive”. Moreover, at MAO-B [2] (from slopes of Lineweaver-Burk plots vs. inhibitor concentration, kynuramine substrate, read-out: competitive inhibition constant (Ki)), the inhibition constant (Ki) was found to be 102 nM. The MAO-B inhibitory mode entry on MAO-B [3] (classified by MAO-B catalytic activity in dialysis group) is reported as “reversible (reversible inhibition: MAO-B catalytic activity ≥ 80%)”. Also, the “MAO-B catalytic activity, undialysis group” value at MAO-B [3] (test compound 4 × IC50, 4 °C for 24 h without dialysis) was 27.6%. In addition, at MAO-B [3] (test compound 4 × IC50, dialysis 24 h), the “MAO-B catalytic activity, dialysis group” value is 80.9%. In addition, the inhibition at 0.5 µM was found to be 15.8% in assay [4] (0.5 µM) and 7.8% in assay [5] (0.5 µM). Besides, the inhibition at […] turned out to be 35.8% in assay [4] (2.5 µM) and 25.7% in assay [5] (2.5 µM).
